Measurements as given in patent US10077268B2, “FXR agonists and methods for making and using” (Salk Institute for Biological Studies, priority 2014, dated 2018).
“Also recorded” adds a separate entry of the source. Read-outs that look alike come from different tables or passages of the source.

Legend:
normal chow-fed mice = assay: Chronic oral treatment of normal chow-fed mice; type: in vivo
Procedure: FIGS. 3A-3D are line graphs and a bar graph showing the effects of fexaramine administration in normal chow-fed mice. The mice were treated with vehicle (left bar) or fexaramine (100 mg/kg) (right bar) via PO for 5 weeks. Data represent the mean±STD. Statistical analysis as performed with the Student's t test (*p<0.05, **p<0.01).
To investigate the physiological effects of intestinal FXR activation by fexaramine, mice were subjected to chronic fexaramine (100 mg/kg Fex) PO treatment for 5 weeks.

TGR5 null mice = assay: HFD-fed TGR5-null mice; type: in vivo; conditions: 100 mg/kg/day PO 5 weeks
Procedure: HFD-fed TGR5-null mice were treated with vehicle or fexaramine (100 mg/kg os daily for 5 weeks with HFD, n=10). (A) Ileal FXR target gene expressions (B) Serum BA levels (C) Fasting glucose levels (D) Glucose tolerance test (E) Core body temperature (F) Oxygen consumption rate (G) Carbon dioxide production (H) Gene expression in BAT (I) Body weight curve (J) Body composition by MRI (K) Insulin Tolerance Test (L) Hepatic gene expression (M) Hepatic TG levels (N) and Gene expression in soleus of TGR5 knockout mice with and without fexaramine treatment. For bar graphs, vehicle is left bar, Fex is right bar. Data represent the mean±SD. Statistical analysis was performed with the Student's t test. *p<0.05, **p<0.01.
To address this possibility, HFD-fed TGR5 null mice were chronically treated with Fex (100 mg/kg/day PO for 5 weeks). […] In particular, the anti-lipogenic effects of Fex in the liver appear to require TGR5 activation, as key hepatic lipogenic genes and liver triglyceride content were not affected by Fex treatment (FIGS. 11L, 11M).

human TGR5 = biological target: T1, human TGR5 (Homo sapiens, UniProt Q8TDU6); assay: cAMP-response element luciferase reporter in HEK293 cells transfected with human TGR5; type: cell-based
T1 construct: expressed in transfected cells; host or cells: HEK293
T1 sequence (Q8TDU6 1-330): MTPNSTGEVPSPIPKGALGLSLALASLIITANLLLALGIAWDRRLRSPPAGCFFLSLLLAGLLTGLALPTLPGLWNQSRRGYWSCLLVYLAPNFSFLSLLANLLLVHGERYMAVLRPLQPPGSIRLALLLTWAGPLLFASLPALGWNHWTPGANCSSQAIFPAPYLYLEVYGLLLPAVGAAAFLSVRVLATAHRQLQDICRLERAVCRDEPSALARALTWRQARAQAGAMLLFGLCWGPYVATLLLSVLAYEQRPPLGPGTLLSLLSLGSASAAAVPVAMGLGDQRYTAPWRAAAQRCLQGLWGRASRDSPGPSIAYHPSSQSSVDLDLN
Procedure: HEK293 cells were transfected with expression vectors for cAMP-response element luciferase, β-galactosidase and human TGR5. 24 hours after transfection, cells were treated with fexaramine or INT-777 (a TGR5 agonist).

[1] = system: diet-induced obesity (DIO) mice; assay: Chronic oral treatment of diet-induced obesity (DIO) mice; type: in vivo; conditions: for glucose tolerance and insulin sensitivity (GTT, ITT): DIO mice, PO 5 weeks
Procedure: FIGS. 2A-2G are graphs illustrating the reduction of diet-induced obesity and improvement in metabolic homeostasis with fexaramine Mice were fed a high fat diet (HFD) for 14 weeks and then administered daily oral injections of vehicle (open boxes) or fexaramine (100 mg/kg) (solid boxes) for 5 weeks with HFD. Data represent the mean±STD. Statistical analysis was performed with the Student's t test (*p<0.05, **p<0.01).
FIG. 4A is a line graph showing the effects of fexaramine at various dosage levels on the body weight of mice fed a HFD for 14 weeks and then administered daily oral injections of vehicle or fexaramine (10, 50 or 100 mg/kg) for 5 weeks with HFD. Data represent the mean±STD. Statistical analysis was performed with the Student's t test (*p<0.05, **p<0.01).
Mice were fed HFD for 14 weeks and then administered vehicle or fexaramine (100 mg/kg) daily by oral administration for 5 weeks with HFD. Data represent the mean±STD. Statistical analysis was performed with the Student's t test (*p<0.05, **p<0.01).
The physiological effects of fexaramine in established obesity (diet-induced obesity, DIO) models were evaluated. C57BL/6J mice were fed a diet of 60% fat for 14 weeks and then treated PO with vehicle or fexaramine (100 mg/kg) for 5 weeks.

COC(=O)/C=C/c1cccc(N(Cc2ccc(-c3ccc(N(C)C)cc3)cc2)C(=O)C2CCCCC2)c1 [fexaramine]
glucose homeostasis in normal chow-fed mice (normal chow-fed mice; across a range of doses): no effects observed
weight gain, basal metabolic activity and glucose tolerance (normal chow-fed mice; chow-fed, 100 mg/kg PO 5 weeks): indistinguishable from vehicle-treated mice
FXR target genes in the ileum of TGR5 null mice (TGR5 null mice): induced multiple FXR target genes
core body temperature and metabolic rate in TGR5 null mice (TGR5 null mice): somewhat blunted increases
fasting glucose levels and glucose tolerance in TGR5 null mice (TGR5 null mice): moderate improvements
key hepatic lipogenic genes and liver triglyceride content in TGR5 null mice (TGR5 null mice): not affected
serum BA levels in TGR5 null mice (TGR5 null mice): lowered serum BA levels
weight gain or insulin sensitivity in TGR5 null mice (TGR5 null mice): no significant changes
activation of TGR5 (human TGR5): fails to activate TGR5
activation of TGR5 (human TGR5; listed as Fex): does not activate
ambulatory counts ([1]; 100 mg/kg PO 5 weeks): more active than control mice
intestinal toxicity (histology of ileum and colon) ([1]; 100 mg/kg PO 5 weeks): no signs of intestinal toxicity
overall fat mass (MRI) ([1]; 100 mg/kg PO 5 weeks): reduced overall fat mass
respiratory exchange ratio ([1]; 100 mg/kg PO 5 weeks): No changes
serum lactate levels ([1]; 100 mg/kg PO 5 weeks): significantly decreased
serum levels of inflammatory cytokines TNFα, IL-1α, IL-1β, IL-17 and MCP-1 ([1]; 100 mg/kg PO 5 weeks): markedly decreased
wet weights of subcutaneous (inguinal) and visceral (gonadal and mesenteric) adipose depots ([1]; 100 mg/kg PO 5 weeks): significant reductions
serum lactate levels ([1]; 100 mg/kg PO 5 weeks, listed as Fex): significantly reduced
prevention of weight gain, dose dependence ([1]; 10, 50 or 100 mg/kg PO 5 weeks): dose-dependent manner
glucose tolerance and insulin sensitivity (GTT, ITT) [1]: improved glucose clearance; also recorded: improved insulin sensitivity
glucose tolerance and insulin sensitivity (GTT, ITT) ([1]; listed as Fex): dose-dependent improvements
weight gain ([1]; HFD 14 weeks, then 100 mg/kg PO 5 weeks): prevented weight gain
cross-sectional area of adipocytes in visceral depots (gonadal, mesenteric) ([1]; chronic treatment): markedly reduced
weight gain at the highest dose ([1]; highest dose): almost completely abrogated
accumulation of lipid vesicles in brown adipose tissue (BAT) ([1]; histology): markedly reduced
hepatic triglycerides ([1]; liver): marked decrease
lipid droplets in liver tissue (histology) ([1]; liver): reduction in lipid droplets
serum alanine aminotransferase (ALT) levels ([1]; serum): decreased
glucose, insulin, leptin, cholesterol and resistin levels ([1]; serum, 100 mg/kg PO 5 weeks): reduced glucose, insulin, leptin, cholesterol, and resistin levels
food intake ([1]; versus vehicle-treated control mice): not attributable to difference in food intake
carbon dioxide production (VCO2) ([1]; weight-matched DIO mice): exhaled more carbon dioxide
oxygen consumption (VO2) ([1]; weight-matched DIO mice): consistently higher oxygen consumption
